Here are results for 26 compounds from patent US8343959B2, “N-phenyl-(piperazinyl or homopiperazinyl)-benzenesulfonamide or benzenesulfonyl-phenyl-(piperazine or homopiperazine) compounds suitable for treating disorders that respond to modulation of the serotonin 5-HT6 receptor” (Abbott GmbH & Co. KG, priority 2009, dated 2013).

pKi: −log10 of the molar value. Structures can show the parent of a compound that is named as a salt.

The target in the experiment is T1, h-5-HT6 receptor (Homo sapiens, UniProt P50406).
T1 construct: expressed in transfected cells
T1 sequence (P50406 whole entry): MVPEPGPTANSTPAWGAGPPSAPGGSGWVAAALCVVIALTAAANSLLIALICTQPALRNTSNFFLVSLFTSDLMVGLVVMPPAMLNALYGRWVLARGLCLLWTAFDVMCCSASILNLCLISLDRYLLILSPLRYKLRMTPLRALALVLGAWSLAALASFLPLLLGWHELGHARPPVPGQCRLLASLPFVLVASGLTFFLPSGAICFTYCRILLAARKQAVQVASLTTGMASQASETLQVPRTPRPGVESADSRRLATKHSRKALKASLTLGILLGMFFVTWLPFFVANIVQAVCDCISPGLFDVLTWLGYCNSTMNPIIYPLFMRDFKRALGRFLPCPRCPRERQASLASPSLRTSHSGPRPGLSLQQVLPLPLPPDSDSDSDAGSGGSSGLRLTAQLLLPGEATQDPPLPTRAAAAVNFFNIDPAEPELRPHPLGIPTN
Briefly: 5-HT6 receptor binding assay (displacement of [3H]-LSD). As to conditions: membranes of HEK293 cells expressing h-5-HT6 receptor, 1 nM [3H]-LSD; read-out: Ki (5HT6). On the procedure: Displacement of Radioligands Binding to The Following Cloned Human Receptors
Cells from stable clonal cell lines expressing the corresponding receptor (5-HT6, α1-adrenergic, dopamine D2 or histamine H1 receptors) were washed with PBS (w/o Ca^++, Mg^++) and harvested in PBS with 0.02% EDTA. The cells were collected by centrifugation at 500 g for 10 min. at 4° C., washed with PBS and centrifuged (500 g, 10 min. 4° C.). The pellets were stored at −80° C. until use. For membrane preparation, the thawed cell pellet was resuspended in ice-cold sucrose buffer (0.25 M sucrose, 10 mM Hepes (pH 7.4), 1 mM Phenylmethylsulfonyl fluoride (PMSF) in DMSO, 5 μg/ml Pepstatin-A, 3 mM EDTA, 0.025% Bacitracin) and homogenized with a Branson Sonifier W-250 (Settings: Timer 4; Output Control 3; Duty Cycle constant; 2 to 3 cycles). Cell disruption was checked with the aid of a microscope. Remaining unbroken cells were pelleted at 1.000 g for 10 min. at 4° C. The sucrose buffer supernatant was then centrifuged at 60.000 g for 1 h at 4° C. (Beckman Ultrazentrifuge XL 80). The pellet was resuspended in 30 ml ice-cold Tris buffer (20 mM TRIS (pH 7.4), 5 μg/ml Pepstatin A, 0.1 mM PMSF, 3 mM EDTA) by pipetting through a 10 ml serological pipet and centrifuged for 1 h at 4° C. at 60.000 g. A final resuspension was performed in a small volume of ice-cold Tris buffer (see above) by pressing through a serological pipet followed by ultrasonic treatment with a Branson Sonifier W-250 (Settings: Timer 1; Output Control 3; Duty Cycle constant; 1 cycle). Protein concentration was determined (BCA-Kit; Pierce) and aliquots stored at −80° C. or in liquid nitrogen for long-term storage.
All receptor binding experiments were carried out in the corresponding assay buffer in a total volume of 200 μl in the presence of various concentrations of test compound (10^−5 M to 10^−9 M, tenfold serial dilution, duplicate determinations). The assays were terminated by filtration on polyethylenimine (PEI 0.1% or 0.3%) presoaked Packard Unifilter Plates (GF/C or GF/B) with a Tomtec Machin U 96 well-plate harvester. After the plates had been dried for 2 h at 55° C. in a drying chamber scintillation cocktail (BetaPlate Scint; PerkinElmer) was added. Radioactivity was measured in a Microbeta Trilux two hours after the addition of the scintillation mixture. Data derived from liquid scintillation counting were analysed by iterative non-linear regression analysis with the use of the Statistical Analysis System (SAS): a program similar to “LIGAND” as described by Munson and Rodbard (Analytical Biochemistry 107, 220-239 (1980).
HEK293 cells stably expressing the h-5-HT6 receptor (NCBI Reference Sequence XM 001435) were cultured in RPMI1640 medium supplemented with 25 mM HEPES, 10% fetal calf serum and 1-2 mM glutamine. The membrane preparation was performed as described in section 1. […] Non-specific binding was defined with 1 μM methiothepin. The binding reaction was carried out for 3.5 h at room temperature. During the incubation, the plates were shaken on a plate shaker at 100 rpm and terminated by filtration on Packard Unifilter GF/C (0.1% PEI) plates, followed by 2 wash cycles with ice-cold 50 mM Tris-HCl, 5 mM CaCl2.
Data derived from liquid scintillation counting were analyzed by iterative non-linear regression analysis with the use of the Statistical Analysis System (SAS): a program similar to “LIGAND” as described by Munson and Rodbard (Anal. Biochem. 1980, 107, 220-239). Fitting was performed according to formulae described by Feldman (Anal. Biochem. 1972, 48, 317-338). IC50, nH and Ki values were expressed as geometrical mean.
Background: Loss of bound radioactivity is the signal in a displacement assay; it reports binding, not function.
The pKi is the Ki on a negative log10 scale, so that one unit is a factor of ten. Turning to `CCc1ccc(S(=O)(=O)Nc2cc(C)ccc2OC(F)F)cc1N1CCNCC1` [Example 65, N-(2-Difluoromethoxy-5-methyl-phenyl)-4-ethyl-3-piperazin-1-yl-benzenesulfonamide hydrochloride], the pKi was more than 8.00. With `COc1ccc(S(=O)(=O)Nc2ccc3c(c2)OC(F)(F)O3)cc1N1CCN(C)CC1` [Example 66, N-(2,2-Difluoro-benzo[1,3]dioxol-5-yl)-4-methoxy-3-(4-methyl-piperazin-1-yl)-benzenesulfonamide hydrochloride] the figure was more than 8.00; with `COc1ccc(S(=O)(=O)Nc2cc(C)ccc2OC(F)F)cc1N1CCN(C)CC1` [Example 67, N-(2-Difluoromethoxy-5-methyl-phenyl)-4-methoxy-3-(4-methyl-piperazin-1-yl)-benzenesulfonamide hydrochloride], more than 8.00; with `O=S(=O)(Nc1cccc(OC(F)F)c1)c1cccc(N2CCNCC2)c1` [Example 68, N-(3-Difluoromethoxy-phenyl)-3-piperazin-1-yl-benzenesulfonamide hydrochloride], more than 8.00. Take `COc1ccc(S(=O)(=O)Nc2ccc(F)cc2OC(F)F)cc1N1CCN(C)CC1` [Example 69, N-(2-Difluoromethoxy-4-fluoro-phenyl)-4-methoxy-3-(4-methyl-piperazin-1-yl)-benzenesulfonamide hydrochloride]: the pKi was more than 8.00. The value for `COc1ccc(S(=O)(=O)Nc2ccc(C)cc2OC(F)F)cc1N1CCN(C)CC1` [Example 70, N-(2-Difluoromethoxy-4-methyl-phenyl)-4-methoxy-3-(4-methyl-piperazin-1-yl)-benzenesulfonamide hydrochloride] was more than 8.00; that for `Cc1ccc(S(=O)(=O)Nc2cc(Cl)ccc2OC(F)F)cc1N1CCNCC1` [Example 71, N-(5-Chloro-2-difluoromethoxy-phenyl)-4-methyl-3-piperazin-1-yl-benzenesulfonamide hydrochloride] was more than 8.00; that for `COc1ccc(S(=O)(=O)Nc2cc(C)ccc2OC(F)F)cc1N1CCNCC1` [Example 72, N-(2-Difluoromethoxy-5-methyl-phenyl)-4-methoxy-3-piperazin-1-yl-benzenesulfonamide hydrochloride] was more than 8.00. `COc1ccc(S(=O)(=O)Nc2ccc(C)cc2OC(F)F)cc1N1CCNCC1` [Example 73, N-(2-Difluoromethoxy-4-methyl-phenyl)-4-methoxy-3-piperazin-1-yl-benzenesulfonamide hydrochloride]: the pKi was more than 8.00. The value for `Cc1ccc(S(=O)(=O)Nc2ccc(F)cc2OC(F)F)cc1N1CCNCC1` [Example 74, N-(2-Difluoromethoxy-4-fluoro-phenyl)-4-methyl-3-piperazin-1-yl-benzenesulfonamide hydrochloride] was more than 7.30; that for `Cc1ccc(NS(=O)(=O)c2ccc(C)c(N3CCN(C)CC3)c2)cc1OC(F)F` [Example 75, N-(3-Difluoromethoxy-4-methyl-phenyl)-4-methyl-3-(4-methyl-piperazin-1-yl)-benzenesulfonamide hydrochloride] was more than 7.30; that for `COc1cc(NS(=O)(=O)c2ccc(C)c(N3CCNCC3)c2)ccc1OC(F)F` [Example 76, N-(4-Difluoromethoxy-3-methoxy-phenyl)-4-methyl-3-piperazin-1-yl-benzenesulfonamide] was more than 7.30. As to `COc1ccc(OC(F)F)cc1NS(=O)(=O)c1ccc(C)c(N2CCN(C)CC2)c1` [Example 77, N-(5-Difluoromethoxy-2-methoxy-phenyl)-4-methyl-3-(4-methyl-piperazin-1-yl)-benzenesulfonamide trifluoroacetate], the pKi is more than 7.30.

In the case of `COc1ccc(OC(F)F)c(NS(=O)(=O)c2ccc(C)c(N3CCN(C)CC3)c2)c1` [Example 78, N-(2-Difluoromethoxy-5-methoxy-phenyl)-4-methyl-3-(4-methyl-piperazin-1-yl)-benzenesulfonamide trifluoroacetate], the pKi is more than 7.30. The value for `Cc1ccc(S(=O)(=O)Nc2ccc(F)cc2OC(F)F)cc1N1CCN(C)CC1` [Example 79, N-(2-Difluoromethoxy-4-fluoro-phenyl)-4-methyl-3-(4-methyl-piperazin-1-yl)-benzenesulfonamide trifluoroacetate] was more than 7.30; that for `COc1ccc(OC(F)F)cc1NS(=O)(=O)c1ccc(C)c(N2CCNCC2)c1` [Example 80, N-(5-Difluoromethoxy-2-methoxy-phenyl)-4-methyl-3-piperazin-1-yl-benzenesulfonamide trifluoroacetate] was more than 7.30. Regarding `COc1ccc(OC(F)F)c(NS(=O)(=O)c2ccc(C)c(N3CCNCC3)c2)c1` [Example 81, N-(2-Difluoromethoxy-5-methoxy-phenyl)-4-methyl-3-piperazin-1-yl-benzenesulfonamide hydrochloride], the negative-log Ki (pKi) was more than 7.30. With `COc1ccc(S(=O)(=O)Nc2ccc(F)cc2OC(F)F)cc1N1CCNCC1` [Example 82, N-(2-Difluoromethoxy-4-fluoro-phenyl)-4-methoxy-3-piperazin-1-yl-benzenesulfonamide hydrochloride] the figure was more than 8.00; with `COc1ccc(S(=O)(=O)Nc2ccc3c(c2)OC(F)(F)O3)cc1N1CCNCC1` [Example 83, N-(2,2-Difluoro-benzo[1,3]dioxol-5-yl)-4-methoxy-3-piperazin-1-yl-benzenesulfonamide hydrochloride], more than 8.00.

As to `Cc1ccc(S(=O)(=O)Nc2ccc3c(c2)OC(F)(F)O3)cc1N1CCNCC1` [Example 84, N-(2,2-Difluoro-benzo[1,3]dioxol-5-yl)-4-methyl-3-piperazin-1-yl-benzenesulfonamide hydrochloride], the negative-log Ki (pKi) is more than 7.30.

As for `COc1ccc(NS(=O)(=O)c2ccc(C)c(N3CCNCC3)c2)cc1OC(F)F` [Example 85, N-(3-Difluoromethoxy-4-methoxy-phenyl)-4-methyl-3-piperazin-1-yl-benzenesulfonamide hydrochloride], the pKi was more than 6.30. With `COc1ccc(NS(=O)(=O)c2ccc(C)c(N3CCN(C)CC3)c2)cc1OC(F)F` [Example 86, N-(3-Difluoromethoxy-4-methyoxy-phenyl)-4-methyl-3-(4-methyl-piperazin-1-yl)-benzenesulfonamide hydrochloride] the figure was more than 6.30; with `Cc1cc(NS(=O)(=O)c2ccc(C)c(N3CCN(C)CC3)c2)ccc1OC(F)F` [Example 87, N-(4-Difluoromethoxy-3-methyl-phenyl)-4-methyl-3-(4-methyl-piperazin-1-yl)-benzenesulfonamide hydrochloride], more than 7.30. With `Cc1ccc(S(=O)(=O)Nc2ccc(OC(F)F)cc2)cc1N1CCN(C)CC1` [Example 88, N-(4-Difluoromethoxy-phenyl)-4-methyl-3-(4-methyl-piperazin-1-yl)-benzenesulfonamide hydrochloride] the figure was more than 6.30; with `COc1ccc(S(=O)(=O)Nc2ccc(C)c(OC(F)F)c2)cc1N1CCN(C)CC1` [Example 89, N-(3-Difluoromethoxy-4-methyl-phenyl)-4-methoxy-3-(4-methyl-piperazin-1-yl)-benzenesulfonamide hydrochloride], more than 8.00; with `COc1cc(NS(=O)(=O)c2ccc(OC)c(N3CCN(C)CC3)c2)ccc1OC(F)F` [Example 90, N-(4-Difluoromethoxy-3-methoxy-phenyl)-4-methoxy-3-(4-methyl-piperazin-1-yl)-benzenesulfonamide], more than 7.30.
